PMC6367069 (Rapid communications in mass spectrometry : RCM, 2019)
Where two headings read alike, the source gives them in different places.

Legend:
PPARγ [1] = target: T1, PPARγ (Homo sapiens, UniProt P37231); conditions: for binding to immobilized PPARγ (SPR binding analysis): 50 μM and 100 μM analyte, 25 °C; for Kd: single cycle kinetics, heterogeneous ligand model
T1 sequence (P37231 1-505): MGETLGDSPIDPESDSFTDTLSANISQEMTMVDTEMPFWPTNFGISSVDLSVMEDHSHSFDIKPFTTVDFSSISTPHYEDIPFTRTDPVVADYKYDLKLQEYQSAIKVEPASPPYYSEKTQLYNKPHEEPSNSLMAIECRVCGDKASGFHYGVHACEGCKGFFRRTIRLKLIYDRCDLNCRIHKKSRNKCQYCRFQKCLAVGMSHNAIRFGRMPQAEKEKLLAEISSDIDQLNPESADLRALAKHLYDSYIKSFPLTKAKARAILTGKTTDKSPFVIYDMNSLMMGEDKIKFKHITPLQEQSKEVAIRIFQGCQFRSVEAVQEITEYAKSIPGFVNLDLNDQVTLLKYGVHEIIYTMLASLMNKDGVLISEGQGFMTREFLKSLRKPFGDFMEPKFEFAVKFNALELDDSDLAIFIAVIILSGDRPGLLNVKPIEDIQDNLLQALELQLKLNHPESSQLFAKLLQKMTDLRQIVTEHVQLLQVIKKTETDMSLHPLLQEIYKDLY

PPARγ [2] = conditions: endogenous ligand of PPARγ; cited from earlier work

SMILES: CCCCC/C=C/C=C1/C(=O)C=C[C@@H]1C/C=C\CCCC(=O)O [15Δ-PGJ2, 15-deoxy-delta-12,14-prostaglandin J2]
- binding to immobilized PPARγ (SPR binding analysis) (PPARγ [1]): direct binding
- Kd (PPARγ [1]; read-out: Kd1): 10 µM
- Kd (PPARγ [1]; read-out: Kd2): 311 µM
- EC50 (PPARγ [2]): 2 µM

SMILES: CCCCC(CC)COC(=O)c1ccccc1C(=O)OCC(CC)CCCC (centres unmarked) [DEHP, di-(2-ethylhexyl)phthalate]
- binding to immobilized PPARγ (SPR binding analysis) (PPARγ [1]): almost no detectable binding
